# Data from article PMC6143478, “Lipophilic activated ester prodrug approach for drug delivery to the intestinal lymphatic system” (Journal of Controlled Release, 2018).
# Like-named read-outs stand apart in the source and are kept apart here.
# Experiments:
# [1] = Prodrug conversion assay in postprandial rat lymph; assay type: in vitro ADME; settings: CM-rich postprandial rat lymph, ex vivo; relative to rat plasma
# Experimental: The prodrugs were tested for their stability and conversion into their corresponding active drug using fasted state simulated intestinal fluid (FaSSIF) with added esterase enzyme activity (20 IU/mL), rat plasma, and postprandial rat lymph. The FaSSIF was prepared as previously described in the literature. The medium was pre-heated to 37 °C prior to the assay for 5 min. The experiment was initiated by spiking stock solutions of prodrugs to give a final concentration of 10 μM of the prodrugs in the medium. When the stability of the artificial emulsion-associated prodrugs was tested in plasma, the association of compounds with artificial emulsion was performed prior to stability experiments and the concentrations of the compounds in the associated emulsion were measured. The emulsion was then spiked to give a concentration of 10 μM of the prodrugs in plasma. The reaction mixtures were incubated at 37 °C and shaken at 200 rpm on a temperature-controlled orbital shaker (Thermo Scientific MaxQ4000, Waltham, MA, USA) for 4 h. Samples were withdrawn at pre-determined time points, and the reaction was terminated by addition of acetonitrile. The samples were then subjected to sample preparation and analysis as described below. […] Half-life of active drug release (t1/2) was calculated by the following equation: t1/2 = −0.693/k. […]
# [2] = Prodrug conversion assay in rat plasma; assay type: in vitro ADME
# Experimental: The prodrugs were tested for their stability and conversion into their corresponding active drug using fasted state simulated intestinal fluid (FaSSIF) with added esterase enzyme activity (20 IU/mL), rat plasma, and postprandial rat lymph. The FaSSIF was prepared as previously described in the literature. The medium was pre-heated to 37 °C prior to the assay for 5 min. The experiment was initiated by spiking stock solutions of prodrugs to give a final concentration of 10 μM of the prodrugs in the medium. When the stability of the artificial emulsion-associated prodrugs was tested in plasma, the association of compounds with artificial emulsion was performed prior to stability experiments and the concentrations of the compounds in the associated emulsion were measured. The emulsion was then spiked to give a concentration of 10 μM of the prodrugs in plasma. The reaction mixtures were incubated at 37 °C and shaken at 200 rpm on a temperature-controlled orbital shaker (Thermo Scientific MaxQ4000, Waltham, MA, USA) for 4 h. Samples were withdrawn at pre-determined time points, and the reaction was terminated by addition of acetonitrile. The samples were then subjected to sample preparation and analysis as described below. The natural log percentage of the prodrug concentration was plotted against incubation time, and the slope (k) was obtained from the plot. Half-life of active drug release (t1/2) was calculated by the following equation: t1/2 = −0.693/k. All experiments were conducted in triplicate.
# [3] = system: human chylomicrons (CM); experiment: Ex vivo association with human plasma-derived chylomicrons; assay type: in vitro ADME; settings: 1.755 μM, 37 °C, 1 h; in words, relative to parent drug
# Source text: The protocol for preparation of human plasma-derived CM emulsion was approved by the Faculty of Medicine and Health Sciences Research Ethics Committee, Queens Medical Centre, Nottingham University Hospitals (BT12102015 CBS SoP). Healthy male volunteers of 19–40 years old and with body mass index of 18.5–25.0 were enrolled in the study after providing informed consent. The participants were excluded if any medication was used within one week prior to enrolment. On the morning of the study, participants received a high-fat meal (equivalent to a full English breakfast). Between 3 and 4 h following breakfast, 30 mL of blood was collected using heparinised tubes (Vacutainer® Blood Collection Tubes) and centrifuged (800 g, 10 min, 15 °C) to obtain plasma.
# CM separation was performed as previously reported with minor modifications. Briefly, KBr (0.57 g) was mixed with 4 mL of plasma to yield density of 1.1 g/mL. PBS with densities of 1.006, 1.019, and 1.063 g/mL were prepared by adding appropriate amounts of KBr. These PBS of different densities were layered on top of the plasma to build density gradient layers in polyallomer ultracentrifuge tubes. The samples were then centrifuged at 268,350 g for 35 min at 15 °C using an ultracentrifuge (SORVALL® TH-641 Rotor, Thermo Fisher Scientific, UK). Following ultracentrifugation, approximately 1 mL of the upper layer containing CM was collected. TG concentration of CM emulsion was assessed using the TG enzymatic kit (Sigma Aldrich, Dorset, UK). TG concentration of the emulsion was adjusted to 100 mg/dL by diluting with PBS of 1.006 g/mL density. The CM emulsion was stored at 4 °C until the association assay (˂24 h).
# The association of the compounds with artificial lipid particle emulsion and human CM was assessed using previously reported methodology with minor modifications. Briefly, 1 mL of artificial lipid particle or CM emulsions (TG concentration 100 mg/dL) was used for the association assay. The emulsion was spiked with stock solutions of tested compounds (in acetonitrile) to give a final concentration of 1.755 μM. The reaction mixtures were incubated at 37 °C for 1 h with magnetic stirring at 300 rpm. Following the incubation, density gradient ultracentrifugation was applied as described above to isolate the artificial lipid particles or CM associated with the tested compounds from the rest of the experimental medium. All experiments were conducted in quintuplicates or above.
# [4] = Biodistribution to mesenteric lymph nodes (MLN) and lymph following oral administration in rats; assay type: in vivo; settings: dose equivalent to 10 mg/kg BEX, rat; for Kp: male, Sprague Dawley, intact prodrug
# Experimental: The protocols for pharmacokinetic and biodistribution experiments in this study were reviewed and approved by the University of Nottingham Ethical Review Committee in accordance with the Animals [Scientific Procedures] Act 1986. Male Sprague Dawley rats (Charles River Laboratories, UK) weighing 350–380 g were used. The animals were housed in the Bio Support Unit, University of Nottingham. Continuous lymph collection was performed according to a protocol approved by the Institutional Animal Care and Use Committee at Rutgers, The State University of New Jersey. Male Sprague Dawley rats (Envigo, Inc., NJ, USA) weighing 300–350 g were used for the continuous lymph collection. Animals were allowed free access to food and water and were acclimatised for at least 6 days prior to any procedures at both institutions in a controlled-temperature environment with 12 h light/dark cycles.
# Formulations were prepared as described in the above pharmacokinetic study and were delivered by an oral gavage. Animals were euthanised at pre-determined time points. Blood was collected from the posterior vena cava and lymph samples were taken from the mesenteric lymph duct. MLNs were dissected and collected as previously described. The MLNs were isolated from surrounding tissue with care not to compromise the integrity of the lymph nodes. The MLNs were homogenised (POLYTRON® PT 10–35 GT, Kinematica AG, Luzern, Switzerland) with 10 mg/mL NaF in water (1,2, w/v) on an ice bath prior to sample preparation for HPLC analysis.
# A combination of protein precipitation and liquid-liquid extraction was applied to samples prior to HPLC injection. To 100 μL sample, 300 μL of acetonitrile was added for protein precipitation and then 300 μL of pH modifier was added when necessary (Supplementary Material Table S2). […] The organic layer was separated and evaporated under N2 gas. Reconstitution solvent (100 μL) was used as detailed in Supplementary Material Table S2 and 40 μL was injected into the HPLC-UV system. […] Therefore, storage and preparation of all samples were performed within the time frame and conditions of confirmed stability.
# The HPLC-UV system consisting of a separation module (Waters Alliance 2695) equipped with a UV detector (Waters 996) was used for analysis. Samples in the autosampler were maintained at 4 °C and the column at 40 °C. The stationary and mobile phases were used as specified in Supplementary Material Table S2. BEX and its prodrugs were detected at 259 nm and RA and its prodrugs at 357 nm.
structure (smiles),measurement,setting,value
C=C(c1ccc(C(=O)OCC)cc1)c1cc2c(cc1C)C(C)(C)CCC2(C)C [prodrug 2],half-life of active drug release in postprandial lymph,[1],prolonged
same,conversion of emulsion-associated form of prodrug in rat plasma,"[2]; prodrug incorporated into Intralipid lipid particles, 10 μM, relative to free form",delayed conversion
same,half-life at 10 μM,"[2]; rat, plasma, in vitro, 37 °C, free form, read-out: half-life of active drug release in rat plasma",20 min
same,association with human chylomicrons (CM),[3],equally high affinity to CM
same,"concentrations of BEX in intestinal lymphatics (MLNs, lymph) relative to plasma","[4]; BEX analyte, in words",comparable between the three matrices
same,Kp,"[4]; mesenteric lymph / plasma, read-out: concentration of prodrug in lymph compared to plasma",41
same,Kp,"[4]; mesenteric lymph nodes (MLN) / plasma, read-out: concentration of prodrug in MLNs compared to plasma",6
